The text below walks through data of PubChem BioAssay (NCI).

Common to all, as to assay: NCI anticancer screen, dose series, 48 h
The subject of assay [1] is UACC-257 melanoma.
Assay [2] relates to SF-295 CNS.
Assay [3] concerns COLO 205 colon.
The subject of assay [4] is HL-60(TB) leukemia.
The test system of assay [5] is SK-MEL-2 melanoma.
Assay [6] has as its system CCRF-CEM leukemia.
The subject of assay [7] is MALME-3M melanoma.
The test system of assay [8] is M14 melanoma.
Assay [9] concerns PC-3 prostate.

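Protocol summary: plate cells (96-well), add compound at 5 concentrations, incubate 48 h, interpolate endpoints linearly. GI50: concentration for 50% inhibition of growth. TGI is the concentration that stops growth completely.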

With `CCOC(=O)C[C@@]12CCCNC1(C)CCc1ccccc12` (stereo not given in full), the TGI in assay [1], in assay [2], in [3], in assay [4], in [5] and in [6] was above 100 µM each time. Moreover, the TGI in assay [7] and in assay [8] was above 100 µM each time.

Take `O=C1C(c2ccccc2)=C(c2ccccc2)[C@H](c2ccccc2)[C@]1(Cc1nnn(-c2ccc([N+](=O)[O-])cc2)c1N1CCOCC1)c1ccccc1`: the TGI in [1], in assay [2], in assay [3], in assay [4], in assay [6] and in assay [8] was above 37.5 µM each time.

Regarding `Cc1nnc(N=Nc2c(O)[nH]c3ccccc23)n1N`, the TGI in [1], in assay [2], in [3], in assay [4], in assay [5] and in assay [6] was above 100 µM throughout. Besides, the TGI in assay [7] and in [8] was above 100 µM each time.

Consider `COc1ccc(C2NCCc3c2[nH]c2ccccc32)cc1` (stereo not given), for which the TGI in assay [1], in assay [2], in assay [3], in assay [4], in [6] and in assay [7] was above 100 µM each time. The molecule further registered a TGI in assay [8] above 100 µM.

Turning to `COC(=O)C1(F)C(=O)NC(=O)NC1OC` (stereo not given), the TGI in assay [1], in [2], in assay [3], in [4], in assay [5] and in assay [6] was above 100 µM throughout. In assay [7], this molecule had a TGI above 100 µM.

`NS(=O)(=O)c1ccc(NC(=O)c2cccn3c(=O)c4ccccc4nc23)cc1`: the TGI in assay [1], in assay [2], in assay [3], in assay [4], in assay [6] and in [7] was above 100 µM in each case. In addition, the TGI in [8] was above 100 µM.

As to `CC(=O)OCCC(O[Si](c1ccccc1)(c1ccccc1)C(C)(C)C)C(C)(C)O` (stereo not given), the TGI in [1] was above 100 µM; in assay [2] it was 45.6 µM; in assay [3], 30.3 µM; in [5], above 100 µM; in assay [6] it was 67.6 µM; in [7], above 100 µM. The molecule also yielded a TGI in [8] above 100 µM.

With `C/C(=N/NC(=O)CC(=O)N(C(=O)c1ccccc1Cl)c1ccc(C)cc1)c1cc2ccccc2oc1=O`, the TGI in [1], in assay [2], in assay [3], in assay [4], in assay [6] and in assay [7] was above 100 µM each time. In [8], this molecule yielded a TGI above 100 µM.

Regarding `CC1(C)OC(COCCOCCCCCO)C(COCCOCCCCCO)O1` (stereo not given), the TGI in assay [1], in [2], in [3], in [5], in [7] and in assay [8] was above 100 µM each time.

As for `Cc1ccccc1NC(=O)C(=O)CC(=O)c1ccc([N+](=O)[O-])cc1`, the TGI in assay [1], in assay [2], in assay [3], in assay [5], in assay [7] and in assay [8] was above 100 µM throughout.

In the case of `CC1=C(C(=O)CC(=O)C(=O)NC2C3CC4CC(C3)CC2C4)Sc2ccccc2N1` (stereo not given), the TGI in assay [1] is above 100 µM; in [2] it was above 100 µM; in [3], above 31.6 µM; in assay [4], above 100 µM; in [5] it was above 100 µM; in [6], above 87.7 µM. Also, the TGI in [7] and in assay [8] was above 100 µM throughout.

`CN(C)C(=O)SC1=C(c2c(Cl)cccc2Cl)C(=O)c2ccccc21`: the GI50 in [1] is 5.16 µM; in assay [2], 16.6 µM; in assay [3], 2.22 µM; in assay [4], 2.84 µM; in assay [5], 7.12 µM; in assay [6], 2.67 µM. The GI50 in assay [7] was 1.66 µM; in [8], 3.03 µM; in assay [9], 7.95 µM. In addition, the TGI in [1] was determined as 9.81 µM; in [2], 33.7 µM; in assay [3] it was 4.42 µM; in [4], 6.53 µM; in [5], 13.7 µM; in [6], 9.27 µM. The results for the TGI in assay [7], in [8] and in assay [9] were 3.74 µM, 7.79 µM and 22.8 µM, respectively.

Consider `C/C(=N/O)c1ccc2c(c1)C(=NO)c1cc(/C(C)=N/O)ccc1-2`, for which the TGI stood at 5.87 µM in assay [1]; 29.1 µM in assay [2]; 38.5 µM in assay [3]; 91.4 µM in assay [4]; 40.1 µM in [5]; 23 µM in assay [7]. This molecule registered a TGI in assay [8] of 31.2 µM.

`O=C(Nc1cc(S(=O)(=O)c2ccc(Cl)cc2)ccc1Cl)c1cc(I)cc(I)c1O`: the GI50 is 18.4 µM in [1]; 15.1 µM in assay [2]; 15.8 µM in [3]; 14.5 µM in [4]; 16.6 µM in assay [5]; 21.1 µM in [7]. Besides, the values for the GI50 in [8] and in assay [9] were 17.6 µM and 14.4 µM, respectively. Besides, the TGI in assay [1] worked out at 42.1 µM; in [2], 32 µM; in assay [3] it was 29.6 µM; in [4], 31.6 µM; in assay [5] it was 39.4 µM; in [7], 48.5 µM. Further, the TGI worked out at 35 µM in [8] and 28.6 µM in [9].

On to `COc1cc2cccc(N=Cc3c(Br)ccc(OC)c3OC(C)C)c2cc1OC`, for which the TGI in [1] is above 100 µM; in assay [2] it was above 100 µM; in assay [3] it was above 100 µM; in assay [5], above 100 µM; in assay [6] it was 90.4 µM; in assay [7], above 100 µM. Further, the TGI in assay [8] was above 100 µM.
